Assays:
Conditions in all cases: Compound concentration 1000.0 nM
[1] = molecular target: T1, Mitogen-activated protein kinase kinase kinase 7 (Homo sapiens) (UniProt O43318)
T1 sequence (whole entry): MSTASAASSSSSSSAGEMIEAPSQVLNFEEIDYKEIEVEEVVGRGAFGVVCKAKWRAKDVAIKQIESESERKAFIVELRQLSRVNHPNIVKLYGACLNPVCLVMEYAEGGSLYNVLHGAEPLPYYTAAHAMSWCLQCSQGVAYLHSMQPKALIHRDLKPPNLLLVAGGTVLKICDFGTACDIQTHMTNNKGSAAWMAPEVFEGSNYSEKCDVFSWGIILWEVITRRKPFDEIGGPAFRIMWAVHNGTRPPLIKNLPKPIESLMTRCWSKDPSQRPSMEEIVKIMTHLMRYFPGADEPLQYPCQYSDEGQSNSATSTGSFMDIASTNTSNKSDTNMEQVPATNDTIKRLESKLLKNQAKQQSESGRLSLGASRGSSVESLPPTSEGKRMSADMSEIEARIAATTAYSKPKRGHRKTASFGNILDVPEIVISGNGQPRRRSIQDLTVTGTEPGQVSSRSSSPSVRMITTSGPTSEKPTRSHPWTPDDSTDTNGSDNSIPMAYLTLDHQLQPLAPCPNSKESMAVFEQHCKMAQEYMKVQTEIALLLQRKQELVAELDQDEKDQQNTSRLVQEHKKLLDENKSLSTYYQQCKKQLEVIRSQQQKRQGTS

[2] = molecular target: Tyrosine-protein kinase BTK (Homo sapiens) (UniProt Q06187)
Sequence of Tyrosine-protein kinase BTK (Homo sapiens) (Q06187 whole entry): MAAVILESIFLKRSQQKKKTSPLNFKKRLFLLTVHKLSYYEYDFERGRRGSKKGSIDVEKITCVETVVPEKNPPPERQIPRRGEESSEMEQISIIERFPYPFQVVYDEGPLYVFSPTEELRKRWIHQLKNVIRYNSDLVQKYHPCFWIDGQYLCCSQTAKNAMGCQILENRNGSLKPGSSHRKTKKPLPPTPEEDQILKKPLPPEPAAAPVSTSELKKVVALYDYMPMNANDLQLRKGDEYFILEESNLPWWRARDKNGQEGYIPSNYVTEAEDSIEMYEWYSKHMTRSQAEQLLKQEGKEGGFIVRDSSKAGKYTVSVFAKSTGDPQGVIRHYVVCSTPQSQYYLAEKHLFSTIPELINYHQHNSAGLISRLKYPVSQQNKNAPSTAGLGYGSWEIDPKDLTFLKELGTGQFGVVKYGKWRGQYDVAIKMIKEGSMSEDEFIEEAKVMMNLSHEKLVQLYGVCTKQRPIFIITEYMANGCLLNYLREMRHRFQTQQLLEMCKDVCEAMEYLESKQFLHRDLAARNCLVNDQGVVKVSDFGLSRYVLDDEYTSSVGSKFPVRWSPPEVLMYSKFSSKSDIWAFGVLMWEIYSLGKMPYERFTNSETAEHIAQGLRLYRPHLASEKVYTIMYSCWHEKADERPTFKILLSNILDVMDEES

[3] = molecular target: Serine/threonine-protein kinase LATS1 (Homo sapiens) (UniProt O95835)
Sequence of Serine/threonine-protein kinase LATS1 (Homo sapiens) (O95835 whole entry): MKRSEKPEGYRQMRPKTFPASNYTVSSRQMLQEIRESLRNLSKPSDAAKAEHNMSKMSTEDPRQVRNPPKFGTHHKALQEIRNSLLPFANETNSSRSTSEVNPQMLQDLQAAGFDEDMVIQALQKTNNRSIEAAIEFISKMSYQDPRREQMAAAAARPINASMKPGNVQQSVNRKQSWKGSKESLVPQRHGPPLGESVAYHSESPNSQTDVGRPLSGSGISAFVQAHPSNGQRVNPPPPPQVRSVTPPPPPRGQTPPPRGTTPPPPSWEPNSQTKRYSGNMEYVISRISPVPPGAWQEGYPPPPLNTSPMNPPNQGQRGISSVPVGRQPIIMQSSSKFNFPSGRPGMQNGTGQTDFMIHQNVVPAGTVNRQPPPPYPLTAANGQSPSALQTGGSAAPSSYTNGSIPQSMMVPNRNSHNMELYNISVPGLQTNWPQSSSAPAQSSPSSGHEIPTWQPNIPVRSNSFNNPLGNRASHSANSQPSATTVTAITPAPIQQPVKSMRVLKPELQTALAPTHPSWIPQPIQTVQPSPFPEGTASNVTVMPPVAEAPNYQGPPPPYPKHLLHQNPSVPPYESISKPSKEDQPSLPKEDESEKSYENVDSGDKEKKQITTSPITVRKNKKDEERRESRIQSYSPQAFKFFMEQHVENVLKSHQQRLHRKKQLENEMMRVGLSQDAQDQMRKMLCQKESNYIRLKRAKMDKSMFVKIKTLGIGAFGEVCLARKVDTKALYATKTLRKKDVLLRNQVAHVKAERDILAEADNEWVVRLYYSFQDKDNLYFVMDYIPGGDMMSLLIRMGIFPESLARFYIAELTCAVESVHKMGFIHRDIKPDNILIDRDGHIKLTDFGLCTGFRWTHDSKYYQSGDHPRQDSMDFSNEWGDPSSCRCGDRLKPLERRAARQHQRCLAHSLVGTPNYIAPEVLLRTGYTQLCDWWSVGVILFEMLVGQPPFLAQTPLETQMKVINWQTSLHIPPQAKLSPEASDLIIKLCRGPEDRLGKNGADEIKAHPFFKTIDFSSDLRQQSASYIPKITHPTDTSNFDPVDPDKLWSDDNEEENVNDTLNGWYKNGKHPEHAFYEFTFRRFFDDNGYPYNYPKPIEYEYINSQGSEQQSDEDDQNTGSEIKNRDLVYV

[4] = molecular target: Wee1-like protein kinase 2 (Homo sapiens) (UniProt P0C1S8)
Sequence of Wee1-like protein kinase 2 (Homo sapiens) (P0C1S8 whole entry, looked up): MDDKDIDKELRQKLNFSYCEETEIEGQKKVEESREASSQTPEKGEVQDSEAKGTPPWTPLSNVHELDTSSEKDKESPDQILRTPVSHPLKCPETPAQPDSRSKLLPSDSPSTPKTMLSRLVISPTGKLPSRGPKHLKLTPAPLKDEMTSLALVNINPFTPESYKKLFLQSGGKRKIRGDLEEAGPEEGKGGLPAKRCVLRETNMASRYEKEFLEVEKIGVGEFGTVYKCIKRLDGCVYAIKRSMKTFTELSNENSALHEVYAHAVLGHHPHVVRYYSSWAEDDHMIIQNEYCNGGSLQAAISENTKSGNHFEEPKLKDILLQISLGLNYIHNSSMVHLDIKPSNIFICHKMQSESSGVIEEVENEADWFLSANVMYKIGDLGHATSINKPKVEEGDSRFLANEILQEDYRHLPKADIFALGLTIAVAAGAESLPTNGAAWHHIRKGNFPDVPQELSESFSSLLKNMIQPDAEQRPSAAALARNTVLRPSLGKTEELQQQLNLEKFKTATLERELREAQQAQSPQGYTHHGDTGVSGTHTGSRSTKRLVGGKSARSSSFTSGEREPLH

[5] = molecular target: T2, Ephrin type-B receptor 4 (Homo sapiens) (UniProt P54760)
T2 sequence (whole entry): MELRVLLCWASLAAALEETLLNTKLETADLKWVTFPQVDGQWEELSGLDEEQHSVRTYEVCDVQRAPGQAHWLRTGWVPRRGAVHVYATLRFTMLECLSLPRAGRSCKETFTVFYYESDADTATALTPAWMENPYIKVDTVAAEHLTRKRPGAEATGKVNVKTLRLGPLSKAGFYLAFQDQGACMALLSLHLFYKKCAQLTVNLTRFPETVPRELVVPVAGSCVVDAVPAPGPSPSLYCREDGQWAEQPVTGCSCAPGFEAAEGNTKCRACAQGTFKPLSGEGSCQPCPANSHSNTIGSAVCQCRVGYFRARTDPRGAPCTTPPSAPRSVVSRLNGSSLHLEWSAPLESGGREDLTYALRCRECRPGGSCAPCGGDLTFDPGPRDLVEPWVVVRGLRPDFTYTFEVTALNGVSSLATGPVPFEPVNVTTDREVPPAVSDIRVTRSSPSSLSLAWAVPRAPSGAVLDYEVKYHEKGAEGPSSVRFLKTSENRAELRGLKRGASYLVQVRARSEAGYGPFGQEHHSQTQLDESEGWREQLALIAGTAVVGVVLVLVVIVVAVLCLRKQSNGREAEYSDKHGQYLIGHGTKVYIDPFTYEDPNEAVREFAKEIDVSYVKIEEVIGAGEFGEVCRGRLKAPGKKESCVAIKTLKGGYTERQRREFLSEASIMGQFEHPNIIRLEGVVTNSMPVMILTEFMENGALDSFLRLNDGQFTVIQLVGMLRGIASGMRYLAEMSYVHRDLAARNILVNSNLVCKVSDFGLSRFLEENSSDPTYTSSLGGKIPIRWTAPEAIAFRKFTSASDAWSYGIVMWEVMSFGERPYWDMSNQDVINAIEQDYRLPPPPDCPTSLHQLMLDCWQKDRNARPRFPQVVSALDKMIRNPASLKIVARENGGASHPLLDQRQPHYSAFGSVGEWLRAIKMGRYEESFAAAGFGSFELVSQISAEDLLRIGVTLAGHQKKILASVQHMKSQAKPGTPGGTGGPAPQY

[6] = molecular target: Proto-oncogene tyrosine-protein kinase ROS (Homo sapiens) (UniProt P08922)
Sequence of Proto-oncogene tyrosine-protein kinase ROS (Homo sapiens) (P08922 whole entry): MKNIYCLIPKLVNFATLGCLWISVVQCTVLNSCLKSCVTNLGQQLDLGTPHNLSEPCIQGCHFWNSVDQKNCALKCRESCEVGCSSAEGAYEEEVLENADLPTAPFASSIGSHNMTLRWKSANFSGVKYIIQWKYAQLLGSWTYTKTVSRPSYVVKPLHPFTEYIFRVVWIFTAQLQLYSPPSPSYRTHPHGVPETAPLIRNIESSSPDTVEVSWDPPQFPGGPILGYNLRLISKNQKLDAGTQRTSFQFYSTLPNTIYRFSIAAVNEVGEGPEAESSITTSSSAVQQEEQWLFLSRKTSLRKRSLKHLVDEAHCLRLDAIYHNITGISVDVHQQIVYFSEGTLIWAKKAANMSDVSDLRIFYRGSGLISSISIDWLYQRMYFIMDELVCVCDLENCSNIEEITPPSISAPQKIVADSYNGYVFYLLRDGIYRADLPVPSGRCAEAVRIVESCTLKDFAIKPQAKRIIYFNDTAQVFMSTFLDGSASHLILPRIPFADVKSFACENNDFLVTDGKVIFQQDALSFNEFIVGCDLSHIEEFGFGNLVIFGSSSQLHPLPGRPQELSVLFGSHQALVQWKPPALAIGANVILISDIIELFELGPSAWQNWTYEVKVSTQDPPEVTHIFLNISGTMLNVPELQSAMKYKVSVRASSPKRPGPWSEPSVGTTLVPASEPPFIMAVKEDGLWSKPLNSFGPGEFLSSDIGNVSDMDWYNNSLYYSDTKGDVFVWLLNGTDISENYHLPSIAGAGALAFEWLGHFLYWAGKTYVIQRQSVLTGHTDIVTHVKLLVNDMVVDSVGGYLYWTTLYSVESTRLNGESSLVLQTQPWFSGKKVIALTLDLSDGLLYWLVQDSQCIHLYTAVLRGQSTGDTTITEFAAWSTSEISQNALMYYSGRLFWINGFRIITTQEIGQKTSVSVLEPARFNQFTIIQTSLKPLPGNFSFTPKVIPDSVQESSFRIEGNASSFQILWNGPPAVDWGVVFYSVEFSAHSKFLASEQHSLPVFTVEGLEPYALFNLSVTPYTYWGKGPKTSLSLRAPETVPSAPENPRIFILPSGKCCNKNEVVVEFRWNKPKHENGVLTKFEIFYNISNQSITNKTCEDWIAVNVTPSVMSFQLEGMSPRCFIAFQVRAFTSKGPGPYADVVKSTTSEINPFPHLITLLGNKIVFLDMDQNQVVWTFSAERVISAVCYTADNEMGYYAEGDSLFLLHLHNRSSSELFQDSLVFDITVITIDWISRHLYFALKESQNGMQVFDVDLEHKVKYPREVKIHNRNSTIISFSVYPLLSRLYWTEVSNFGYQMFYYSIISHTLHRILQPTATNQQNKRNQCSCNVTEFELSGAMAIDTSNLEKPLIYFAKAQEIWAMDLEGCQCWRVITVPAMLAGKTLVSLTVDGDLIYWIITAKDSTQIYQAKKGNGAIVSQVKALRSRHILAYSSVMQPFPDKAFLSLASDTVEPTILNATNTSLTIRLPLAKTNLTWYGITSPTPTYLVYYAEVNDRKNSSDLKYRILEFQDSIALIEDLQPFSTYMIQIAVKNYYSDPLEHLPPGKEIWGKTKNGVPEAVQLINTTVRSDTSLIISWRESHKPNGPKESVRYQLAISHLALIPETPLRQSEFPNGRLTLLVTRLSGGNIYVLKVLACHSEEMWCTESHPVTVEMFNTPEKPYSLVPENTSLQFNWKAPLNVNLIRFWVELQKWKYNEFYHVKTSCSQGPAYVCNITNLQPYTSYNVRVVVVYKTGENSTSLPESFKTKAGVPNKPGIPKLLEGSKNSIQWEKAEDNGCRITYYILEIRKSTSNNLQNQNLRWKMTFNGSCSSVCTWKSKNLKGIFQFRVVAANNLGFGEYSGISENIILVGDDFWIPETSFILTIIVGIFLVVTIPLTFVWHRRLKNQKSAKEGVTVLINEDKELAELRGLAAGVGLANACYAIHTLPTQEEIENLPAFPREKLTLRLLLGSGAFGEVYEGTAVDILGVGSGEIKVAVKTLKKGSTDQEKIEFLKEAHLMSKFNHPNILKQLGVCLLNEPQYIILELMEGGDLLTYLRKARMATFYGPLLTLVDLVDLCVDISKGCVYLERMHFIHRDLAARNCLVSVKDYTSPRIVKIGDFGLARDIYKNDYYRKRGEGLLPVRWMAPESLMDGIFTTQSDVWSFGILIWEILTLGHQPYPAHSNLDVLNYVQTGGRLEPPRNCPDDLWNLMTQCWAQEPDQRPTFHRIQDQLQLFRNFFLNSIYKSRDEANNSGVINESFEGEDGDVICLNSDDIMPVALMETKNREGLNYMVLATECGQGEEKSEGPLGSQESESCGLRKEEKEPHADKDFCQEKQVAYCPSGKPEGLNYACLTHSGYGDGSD

[7] = molecular target: Tyrosine-protein kinase ABL1 (Homo sapiens) (UniProt P00519)
[8] = molecular target: T3, Tyrosine-protein kinase Tec (Homo sapiens) (UniProt P42680)
T3 sequence (whole entry): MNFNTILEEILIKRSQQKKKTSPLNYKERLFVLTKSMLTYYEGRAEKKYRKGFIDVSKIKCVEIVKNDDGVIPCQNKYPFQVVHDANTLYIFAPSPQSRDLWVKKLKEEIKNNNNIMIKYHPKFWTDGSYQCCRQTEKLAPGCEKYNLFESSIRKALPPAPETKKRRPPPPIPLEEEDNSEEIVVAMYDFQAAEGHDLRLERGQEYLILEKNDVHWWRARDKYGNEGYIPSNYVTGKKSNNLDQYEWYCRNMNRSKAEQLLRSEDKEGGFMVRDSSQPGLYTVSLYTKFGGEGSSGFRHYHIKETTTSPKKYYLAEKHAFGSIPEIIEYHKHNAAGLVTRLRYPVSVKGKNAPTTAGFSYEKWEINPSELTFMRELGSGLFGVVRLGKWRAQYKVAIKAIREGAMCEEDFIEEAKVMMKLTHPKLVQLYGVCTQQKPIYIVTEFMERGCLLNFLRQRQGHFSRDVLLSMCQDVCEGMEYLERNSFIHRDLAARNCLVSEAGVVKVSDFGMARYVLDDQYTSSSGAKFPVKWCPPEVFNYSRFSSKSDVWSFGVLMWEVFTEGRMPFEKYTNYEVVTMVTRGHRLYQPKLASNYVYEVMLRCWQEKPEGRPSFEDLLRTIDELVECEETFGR

[9] = molecular target: Cyclin-dependent kinase 4 (Homo sapiens) (UniProt P11802)
Sequence of Cyclin-dependent kinase 4 (Homo sapiens) (P11802 whole entry): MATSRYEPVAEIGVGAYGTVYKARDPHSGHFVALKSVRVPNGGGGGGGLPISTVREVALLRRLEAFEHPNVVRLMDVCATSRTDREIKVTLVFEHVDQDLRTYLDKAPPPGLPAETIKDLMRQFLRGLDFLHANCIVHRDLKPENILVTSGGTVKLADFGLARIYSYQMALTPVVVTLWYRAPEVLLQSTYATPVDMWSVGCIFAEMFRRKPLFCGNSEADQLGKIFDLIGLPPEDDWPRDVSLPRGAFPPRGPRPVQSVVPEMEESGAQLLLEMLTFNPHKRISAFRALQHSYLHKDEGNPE

Measured: residual activity

CN(C)C(=O)Cn1cc(-c2nc(C3(c4ccc(-c5cnc(N)nc5)cc4)CC3)no2)cn1 [BI 0153]
inactive: [1] 72% | [2] 82% | [3] 100% | [4] 99% | [5] 100% | [6] 87% | [7] 93% | [8] 93% | [9] 100%

CN(C)C(=O)Cn1cc(-c2nc([C@@](C)(c3ccc(-c4cnc(N)nc4)cc3)C3CC3)no2)cn1 [BI 665915]
inactive: [1] 50% | [2] 73% | [3] 93% | [4] 100% | [5] 100% | [6] 88% | [7] 84% | [8] 93% | [9] 94%
